From ChEMBL document CHEMBL4673334, “In Vivo Biological Evaluation of a Synthetic Royleanone Derivative as a Promising Fast-Acting Trypanocidal Agent by Inducing Mitochondrial-Dependent Necrosis” (J Nat Prod, 2020)
Calls of active or inactive are those of the source. No cut-off for these calls is given here.

Columns and labels:
Vero = assay: Cytotoxicity against African green monkey Vero cells assessed as reduction in cell viability after 48 hrs by resazurin dye based assay; conditions: Chlorocebus sabaeus
Trypanosoma cruzi [1] = assay: Antitrypanosomal activity against Trypanosoma cruzi TINF/CH/1956/Tulahuen (DTU VI) epimastigote form assessed as parasite growth inhibition incubated for 48 hrs by resazurin dye based assay; assay type: functional, organism-based
Trypanosoma cruzi [2] = assay: Antitrypanosomal activity against Trypanosoma cruzi IRHOD/CO/2008/SN3 (DTU I) epimastigote form assessed as parasite growth inhibition incubated for 48 hrs by resazurin dye based assay; assay type: functional, organism-based
Trypanosoma cruzi [3] = assay: Antitrypanosomal activity against Trypanosoma cruzi MHOM/Pe/2011/Arequipa(DTU V) epimastigote form assessed as parasite growth inhibition incubated for 48 hrs by resazurin dye based assay; assay type: functional, organism-based
[4] = Toxicity in BALB/c mouse infected with Trypanosomal Trypanosoma cruzi MHOM/Pe/2011/Arequipa(DTU V) assessed as effect on ALT/GPT level at 20 mg/kg, po administered for 5 days starting at 100 days post infection and measured after 2 days post treatment; assay type: organism-based; conditions: in vivo, 120 h, time 5 day
Trypanosoma cruzi [5] = assay: Antitrypanosomal activity against Trypanosoma cruzi MHOM/Pe/2011/Arequipa(DTU V) amastigote form infected in BALB/c mouse assessed as reduction in parasitaemia at 20 mg/kg, po for 5 days and measured after 55 days post infection; assay type: functional, organism-based; conditions: time 5.0 day
[6] = Toxicity in BALB/c mouse infected with Trypanosomal Trypanosoma cruzi MHOM/Pe/2011/Arequipa(DTU V) assessed as effect on […] level at 20 mg/kg, po administered for 5 days starting at 100 days post infection and measured after 2 days post treatment; assay type: organism-based; conditions: in vivo, 120 h, time 5 day
Trypanosoma cruzi [7] = assay: Inhibition of mitochondrial membrane potential in Trypanosoma cruzi MHOM/Pe/2011/Arequipa(DTU V) epimastigote form at IC25 concentration after 72 hrs by Rho (FITC-A) staining based flow cytometric analysis; assay type: functional
Trypanosoma cruzi [8] = assay: Inhibition of nucleic acid level in Trypanosoma cruzi MHOM/Pe/2011/Arequipa(DTU V) epimastigote form at IC25 concentration after 72 hrs by Rho (FITC-A) staining based flow cytometric analysis; assay type: functional
[9] = Toxicity in BALB/c mouse infected with Trypanosomal Trypanosoma cruzi MHOM/Pe/2011/Arequipa(DTU V) assessed as effect on total bilirubin level at 20 mg/kg, po administered for 5 days starting at 100 days post infection and measured after 2 days post treatment; assay type: organism-based; conditions: in vivo, 120 h, time 5 day
[10] = Toxicity in BALB/c mouse infected with Trypanosomal Trypanosoma cruzi MHOM/Pe/2011/Arequipa(DTU V) assessed as effect on CK-MB level at 20 mg/kg, po administered for 5 days starting at 100 days post infection and measured after 2 days post treatment; assay type: organism-based; conditions: in vivo, 120 h, time 5 day
[11] = Toxicity in BALB/c mouse infected with Trypanosomal Trypanosoma cruzi MHOM/Pe/2011/Arequipa(DTU V) assessed as reduction in weight at 20 mg/kg, po administered for 5 days starting at 9 days post infection and measured up to 145 days post infection; assay type: organism-based; conditions: in vivo, 120 h, time 5 day
Trypanosoma cruzi [12] = assay: (§1) Antitrypanosomal activity against Trypanosoma cruzi MHOM/Pe/2011/Arequipa(DTU V) amastigote form infected in BALB/c mouse assessed as parasite free organ tissue ratio at 20 mg/kg, po administered for 5 days starting at 100 days post infection and measured up to 145 days post infection by PCR analysis relative to control; assay type: functional; conditions: time 5 day
[13] = Toxicity in BALB/c mouse infected with Trypanosomal Trypanosoma cruzi MHOM/Pe/2011/Arequipa(DTU V) assessed as effect on uric acid level at 20 mg/kg, po administered for 5 days starting at 9 days post infection and measured after 2 days post treatment; assay type: organism-based; conditions: in vivo, 120 h, time 5 day
[14] = Toxicity in BALB/c mouse infected with Trypanosomal Trypanosoma cruzi MHOM/Pe/2011/Arequipa(DTU V) assessed as reduction in survival at 20 mg/kg, po administered for 5 days starting at 9 days post infection and measured up to 145 days post infection; assay type: organism-based; conditions: in vivo, 120 h, time 5 day
Trypanosoma cruzi [15] = assay: Antitrypanosomal activity against Trypanosoma cruzi MHOM/Pe/2011/Arequipa(DTU V) amastigote form infected in Vero cells assessed as parasite growth inhibition at 50 uM incubated for 72 hrs by Giemsa-staining based assay relative to control; assay type: functional
[16] = Toxicity in BALB/c mouse infected with Trypanosomal Trypanosoma cruzi MHOM/Pe/2011/Arequipa(DTU V) assessed as effect on urea level at 20 mg/kg, po administered for 5 days starting at 100 days post infection and measured after 2 days post treatment; assay type: organism-based; conditions: in vivo, 120 h, time 5 day
Trypanosoma cruzi [17] = assay: Antitrypanosomal activity against Trypanosoma cruzi MHOM/Pe/2011/Arequipa(DTU V) amastigote form infected in BALB/c mouse assessed as reactivation parasitaemia at 20 mg/kg, po administered for 5 days starting at 9 days post infection and measured up to 145 days post infection relative to control; assay type: functional; conditions: time 5 day
[18] = Toxicity in BALB/c mouse infected with Trypanosomal Trypanosoma cruzi MHOM/Pe/2011/Arequipa(DTU V) assessed as effect on total bilirubin level at 20 mg/kg, po administered for 5 days starting at 9 days post infection and measured after 2 days post treatment; assay type: organism-based; conditions: in vivo, 120 h, time 5 day
[19] = Toxicity in BALB/c mouse infected with Trypanosomal Trypanosoma cruzi MHOM/Pe/2011/Arequipa(DTU V) assessed as reduction in survival at 20 mg/kg, po administered for 5 days starting at 100 days post infection and measured up to 145 days post infection; assay type: organism-based; conditions: in vivo, 120 h, time 5 day
[20] = Toxicity in BALB/c mouse infected with Trypanosomal Trypanosoma cruzi MHOM/Pe/2011/Arequipa(DTU V) assessed as effect on urea level at 20 mg/kg, po administered for 5 days starting at 9 days post infection and measured after 2 days post treatment; assay type: organism-based; conditions: in vivo, 120 h, time 5 day
Trypanosoma cruzi [21] = assay: as §1, with “9” for “100”; assay type: functional; conditions: time 5 day
[22] = Toxicity in BALB/c mouse infected with Trypanosomal Trypanosoma cruzi MHOM/Pe/2011/Arequipa(DTU V) assessed as effect on ALP level at 20 mg/kg, po administered for 5 days starting at 100 days post infection and measured after 2 days post treatment; assay type: organism-based; conditions: in vivo, 120 h, time 5 day
[23] = Toxicity in BALB/c mouse infected with Trypanosomal Trypanosoma cruzi MHOM/Pe/2011/Arequipa(DTU V) assessed as effect on LDH level at 20 mg/kg, po administered for 5 days starting at 100 days post infection and measured after 2 days post treatment; assay type: organism-based; conditions: in vivo, 120 h, time 5 day
[24] = Toxicity in BALB/c mouse infected with Trypanosomal Trypanosoma cruzi MHOM/Pe/2011/Arequipa(DTU V) assessed as effect on LDH level at 20 mg/kg, po administered for 5 days starting at 9 days post infection and measured after 2 days post treatment; assay type: organism-based; conditions: in vivo, 120 h, time 5 day
[25] = Toxicity in BALB/c mouse infected with Trypanosomal Trypanosoma cruzi MHOM/Pe/2011/Arequipa(DTU V) assessed as effect on ALT/GPT level at 20 mg/kg, po administered for 5 days starting at 9 days post infection and measured after 2 days post treatment; assay type: organism-based; conditions: in vivo, 120 h, time 5 day
[26] = Toxicity in BALB/c mouse infected with Trypanosomal Trypanosoma cruzi MHOM/Pe/2011/Arequipa(DTU V) assessed as effect on CK-MB level at 20 mg/kg, po administered for 5 days starting at 9 days post infection and measured after 2 days post treatment; assay type: organism-based; conditions: in vivo, 120 h, time 5 day
[27] = Toxicity in BALB/c mouse infected with Trypanosomal Trypanosoma cruzi MHOM/Pe/2011/Arequipa(DTU V) assessed as effect on AST/GOT level at 20 mg/kg, po administered for 5 days starting at 9 days post infection and measured after 2 days post treatment; assay type: organism-based; conditions: in vivo, 120 h, time 5 day
[28] = Toxicity in BALB/c mouse infected with Trypanosomal Trypanosoma cruzi MHOM/Pe/2011/Arequipa(DTU V) assessed as effect on ALP level at 20 mg/kg, po administered for 5 days starting at 9 days post infection and measured after 2 days post treatment; assay type: organism-based; conditions: in vivo, 120 h, time 5 day
Trypanosoma cruzi [29] = assay: Antitrypanosomal activity against Trypanosoma cruzi MHOM/Pe/2011/Arequipa(DTU V) amastigote form infected in BALB/c mouse assessed as reactivation parasitaemia at 20 mg/kg, po administered for 5 days starting at 100 days post infection and measured up to 145 days post infection relative to control; assay type: functional; conditions: time 5 day
[30] = Toxicity in BALB/c mouse infected with Trypanosomal Trypanosoma cruzi MHOM/Pe/2011/Arequipa(DTU V) assessed as effect on uric acid level at 20 mg/kg, po administered for 5 days starting at 100 days post infection and measured after 2 days post treatment; assay type: organism-based; conditions: in vivo, 120 h, time 5 day
[31] = Toxicity in BALB/c mouse infected with Trypanosomal Trypanosoma cruzi MHOM/Pe/2011/Arequipa(DTU V) assessed as reduction in weight at 20 mg/kg, po administered for 5 days starting at 100 days post infection and measured up to 145 days post infection; assay type: organism-based; conditions: in vivo, 120 h, time 5 day

Compound: CC(C)c1cc2c(cc1O)[C@@]1(C)CCC[C@@]3(C)CO[C@@H]([C@@H]2O)[C@@H]31
- IC50 (Vero): 763 µM
- IC50 (Trypanosoma cruzi [1]): 34.6 µM
- IC50 (Trypanosoma cruzi [2]): 36.7 µM
- IC50 (Trypanosoma cruzi [3]): 31.1 µM

Compound: COC(=O)[C@]1(C)CCC[C@]2(C)c3ccc(C(C)C)c(O)c3CC[C@@H]12
- IC50 (Vero): 102 µM
- IC50 (Trypanosoma cruzi [1]): 71.2 µM
- IC50 (Trypanosoma cruzi [2]): 103 µM
- IC50 (Trypanosoma cruzi [3]): 75 µM

Compound: CC(C)C1=CC(=O)C2=C(C=C[C@H]3C(C)(C)CCC[C@]23C)C1=O
- IC50 (Vero): 26.1 µM
- IC50 (Trypanosoma cruzi [1]): 19.2 µM
- IC50 (Trypanosoma cruzi [2]): 13.5 µM
- IC50 (Trypanosoma cruzi [3]): 19 µM

Compound: CC(C)c1cc2c(cc1O)[C@@]1(C)CCC[C@@]3(C)CO[C@@H](C2=O)[C@@H]31
- IC50 (Vero): 952 µM
- IC50 (Trypanosoma cruzi [1]): 62.8 µM
- IC50 (Trypanosoma cruzi [2]): 60.8 µM
- IC50 (Trypanosoma cruzi [3]): 51 µM

Compound: CC(C)c1cc2c(cc1O)[C@@]1(C)CCC[C@@](C)(C=O)[C@@H]1CC2 [18-OXOFERRUGINOL]
- IC50 (Vero): 106 µM
- IC50 (Trypanosoma cruzi [1]): 48.7 µM
- IC50 (Trypanosoma cruzi [2]): 63 µM
- IC50 (Trypanosoma cruzi [3]): 59.5 µM

Compound: CC(C)C1=CC2=C[C@@H]3OC(=O)[C@]4(C)CCC=C(C2=C(O)C1=O)[C@]34C
- IC50 (Vero): 222 µM
- IC50 (Trypanosoma cruzi [1]): 95.3 µM
- IC50 (Trypanosoma cruzi [2]): 110 µM
- IC50 (Trypanosoma cruzi [3]): 75.9 µM

Compound: CC(C)c1cc2c(cc1O)[C@@]1(C)CCCC(C)(C)[C@@]1(O)OC2=O
- IC50 (Vero): 480 µM
- IC50 (Trypanosoma cruzi [1]): 72.8 µM
- IC50 (Trypanosoma cruzi [2]): 91.2 µM
- IC50 (Trypanosoma cruzi [3]): 40.5 µM

Compound: O=C(Cn1ccnc1[N+](=O)[O-])NCc1ccccc1 [BENZNIDAZOLE]
- Activity [4]: Non-Toxic
- Activity (Trypanosoma cruzi [5]): Active
- IC50 (Vero): 80.4 µM
- Activity [6]: Non-Toxic
- inhibition (Trypanosoma cruzi [7]): 35.4%
- inhibition (Trypanosoma cruzi [8]): 22.4%
- Activity [9]: Non-Toxic
- Activity [10]: Non-Toxic
- Activity [11]: Non-Toxic
- Activity (Trypanosoma cruzi [12]): 42.9%
- Activity [13]: Non-Toxic
- Activity [14]: Non-Toxic
- inhibition at 50 µM (Trypanosoma cruzi [15]): 100%
- Activity [16]: Non-Toxic
- Activity (Trypanosoma cruzi [17]): 81.5%
- Activity [18]: Non-Toxic
- Activity [19]: Non-Toxic
- Activity [20]: Non-Toxic
- Activity (Trypanosoma cruzi [21]): 28.5%
- Activity [22]: Non-Toxic
- Activity [23]: Non-Toxic
- Activity [24]: Non-Toxic
- Activity [25]: Non-Toxic
- Activity [26]: Non-Toxic
- Activity [27]: Non-Toxic
- Activity [28]: Non-Toxic
- Activity (Trypanosoma cruzi [29]): 68.3%
- Activity [30]: Non-Toxic
- Activity [31]: Non-Toxic
